Test results reported in ChEMBL document CHEMBL1909046, “DrugMatrix in vitro pharmacology data”.

Legend:
[1] = biological target: T1, 5-hydroxytryptamine receptor 1A (Rattus norvegicus, UniProt P19327); assay type: cell membranes, CHO-K1, Membrane; note: in other assays of this panel Not Active means under 50% inhibition at 10 µM
T1 sequence (P19327 whole entry): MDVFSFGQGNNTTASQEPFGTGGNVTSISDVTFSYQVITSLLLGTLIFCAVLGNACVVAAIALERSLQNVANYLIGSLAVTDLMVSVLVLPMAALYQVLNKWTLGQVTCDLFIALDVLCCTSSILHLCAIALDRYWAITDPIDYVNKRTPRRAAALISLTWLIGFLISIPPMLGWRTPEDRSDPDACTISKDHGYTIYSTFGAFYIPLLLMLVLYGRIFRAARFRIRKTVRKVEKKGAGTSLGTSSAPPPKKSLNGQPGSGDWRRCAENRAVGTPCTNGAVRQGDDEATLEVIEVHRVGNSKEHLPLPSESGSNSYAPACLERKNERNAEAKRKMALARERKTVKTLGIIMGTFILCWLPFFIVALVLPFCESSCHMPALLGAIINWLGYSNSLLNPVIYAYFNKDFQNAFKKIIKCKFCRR

[2] = biological target: C-C chemokine receptor type 2 (Homo sapiens, UniProt P41597); assay type: cell membranes, CHO-K1, Membrane; details: cho-k1; note: in other assays of this panel Not Active means under 50% inhibition at 10 µM
C-C chemokine receptor type 2, sequence (P41597 whole entry): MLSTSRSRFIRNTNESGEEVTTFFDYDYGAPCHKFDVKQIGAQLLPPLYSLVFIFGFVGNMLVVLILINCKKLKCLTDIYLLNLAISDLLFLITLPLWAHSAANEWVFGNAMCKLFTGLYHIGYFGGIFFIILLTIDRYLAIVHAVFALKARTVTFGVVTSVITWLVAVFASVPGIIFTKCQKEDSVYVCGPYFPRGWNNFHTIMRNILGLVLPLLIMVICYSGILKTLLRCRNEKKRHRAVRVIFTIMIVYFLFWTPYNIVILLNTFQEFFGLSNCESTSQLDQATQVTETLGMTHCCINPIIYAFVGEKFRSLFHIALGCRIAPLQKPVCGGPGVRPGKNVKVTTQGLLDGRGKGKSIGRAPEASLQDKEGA

[3] = DRUGMATRIX: Phorbol Ester radioligand binding (ligand: [3H] PDBu); assay type: cell membranes, Mus musculus, ICR, Brain, Membrane; details: Not Active = under 50% inhibition at 10 µM
[4] = biological target: T2, Alpha-1D adrenergic receptor (Homo sapiens, UniProt P25100); assay type: cell membranes, HEK293, Membrane; note: in other assays of this panel Not Active means under 50% inhibition at 10 µM
T2 sequence (P25100 whole entry): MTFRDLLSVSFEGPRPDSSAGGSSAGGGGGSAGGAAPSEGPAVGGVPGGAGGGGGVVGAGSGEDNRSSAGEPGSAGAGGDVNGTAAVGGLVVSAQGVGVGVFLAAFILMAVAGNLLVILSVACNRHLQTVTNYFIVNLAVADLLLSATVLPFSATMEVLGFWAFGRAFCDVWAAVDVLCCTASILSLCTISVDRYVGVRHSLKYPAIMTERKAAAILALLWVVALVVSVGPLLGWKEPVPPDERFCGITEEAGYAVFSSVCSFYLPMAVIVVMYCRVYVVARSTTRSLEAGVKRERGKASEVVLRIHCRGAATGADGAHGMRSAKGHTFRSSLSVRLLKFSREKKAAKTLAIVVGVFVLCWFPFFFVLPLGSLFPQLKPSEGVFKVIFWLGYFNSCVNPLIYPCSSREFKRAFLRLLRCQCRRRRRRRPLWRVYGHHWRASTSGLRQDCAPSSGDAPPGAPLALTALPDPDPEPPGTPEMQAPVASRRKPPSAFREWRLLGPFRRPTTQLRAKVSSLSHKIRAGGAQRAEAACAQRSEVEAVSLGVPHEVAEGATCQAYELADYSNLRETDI

[5] = DRUGMATRIX: Atrial Natriuretic Factor (ANF) radioligand binding (ligand: [125I] ANF (rat)); assay type: cell membranes, Cavia porcellus, Dunkin-Hartley, Adrenal gland, Membrane; details: Not Active = under 50% inhibition at 10 µM
[6] = biological target: Melanocortin receptor 5 (Homo sapiens, UniProt P33032); assay type: cell membranes, HEK293, Membrane; details: hek293; note: in other assays of this panel Not Active means under 50% inhibition at 10 µM
Melanocortin receptor 5, sequence (P33032 whole entry): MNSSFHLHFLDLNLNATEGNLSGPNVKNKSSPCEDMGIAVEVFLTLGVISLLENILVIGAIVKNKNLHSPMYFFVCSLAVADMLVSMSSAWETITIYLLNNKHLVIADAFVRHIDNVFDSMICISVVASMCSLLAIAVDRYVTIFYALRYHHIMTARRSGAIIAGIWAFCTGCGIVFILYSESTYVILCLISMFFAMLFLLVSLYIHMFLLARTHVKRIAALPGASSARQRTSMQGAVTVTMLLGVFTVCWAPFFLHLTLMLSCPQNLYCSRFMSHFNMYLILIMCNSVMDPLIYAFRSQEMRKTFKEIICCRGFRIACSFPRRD

For `CCN(CC)N=O` [N-NITROSODIETHYLAMINE], the IC50 ([1]; cho-k1) was “Not Active”, the IC50 [2] was “Not Active” and the IC50 [3] was “Not Active”. The Ki [3] was “Not Active”, the IC50 ([4]; hek293) was “Not Active” and the IC50 [5] was “Not Active”. For the same compound, the Ki [5] was “Not Active” and the IC50 [6] was “Not Active”.

For `CC(=O)O[C@]1(C(C)=O)CC[C@H]2[C@@H]3C[C@H](C)C4=CC(=O)CC[C@]4(C)[C@H]3CC[C@@]21C` [MEDROXYPROGESTERONE ACETATE], the IC50 ([1]; cho-k1) was “Not Active”, the IC50 [2] was “Not Active” and the IC50 [3] was “Not Active”. The Ki [3] was “Not Active”, the IC50 ([4]; hek293) was “Not Active” and the IC50 [5] was “Not Active”. For the same compound, the Ki [5] was “Not Active” and the IC50 [6] was “Not Active”.

For `CCN1CCCC1CNC(=O)c1cc(S(N)(=O)=O)ccc1OC` (stereo unspecified) [SULPIRIDE], the IC50 ([1]; cho-k1) was “Not Active”, the IC50 [2] was “Not Active” and the IC50 [3] was “Not Active”. For the same compound, the Ki [3] was “Not Active”, the IC50 ([4]; hek293) was “Not Active” and the IC50 [5] was “Not Active”. The Ki [5] was “Not Active” and the IC50 [6] was “Not Active”.

With `CN1C[C@H](CNC(=O)OCc2ccccc2)C[C@@H]2c3cccc4c3c(cn4C)C[C@H]21` [METERGOLINE] the IC50 ([1]; read-out: IC50) was 6.17 nM, the Ki ([1]; read-out: Ki) was 3.53 nM and the IC50 [2] was “Not Active”. The IC50 [3] was “Not Active”, the Ki [3] was “Not Active” and the IC50 ([4]; read-out: IC50) was 136 nM. The Ki ([4]; read-out: Ki) was 67 nM, the IC50 [5] was “Not Active” and the Ki [5] was “Not Active”. The IC50 [6] was “Not Active”.

In the case of `CC(Cl)(Cl)Cl` [TRICHLOROETHANE], the IC50 ([1]; cho-k1) is reported as “Not Active”, the IC50 [2] is reported as “Not Active” and the IC50 [3] is reported as “Not Active”. The Ki [3] was “Not Active”, the IC50 ([4]; hek293) was “Not Active” and the IC50 [5] was “Not Active”. For the same compound, the Ki [5] was “Not Active” and the IC50 [6] was “Not Active”.

With `CC1=C(/C=C/C(C)=C/C=C/C(C)=C/C(=O)O)C(C)(C)CCC1` [TRETINOIN] the IC50 ([1]; cho-k1) was “Not Active”, the IC50 [2] was “Not Active” and the IC50 [3] was “Not Active”. The Ki [3] was “Not Active”, the IC50 ([4]; hek293) was “Not Active” and the IC50 [5] was “Not Active”. The Ki [5] was “Not Active” and the IC50 [6] was “Not Active”.

In the case of `C=CCc1ccc2c(c1)OCO2` [SAFROLE], the IC50 ([1]; cho-k1) is reported as “Not Active”, the IC50 [2] is reported as “Not Active” and the IC50 [3] is reported as “Not Active”. The Ki [3] was “Not Active”, the IC50 ([4]; hek293) was “Not Active” and the IC50 [5] was “Not Active”. The Ki [5] was “Not Active” and the IC50 [6] was “Not Active”.

With `C1CCN2C[C@@H]3C[C@@H](CN4CCCC[C@@H]34)[C@H]2C1` [SPARTEINE] the IC50 ([1]; cho-k1) was “Not Active”, the IC50 [2] was “Not Active” and the IC50 [3] was “Not Active”. The Ki [3] was “Not Active”, the IC50 ([4]; hek293) was “Not Active” and the IC50 [5] was “Not Active”. For the same compound, the Ki [5] was “Not Active” and the IC50 [6] was “Not Active”.
